Consider seven substances from US7067488B2, “Modified GLP-1 peptides with increased biological potency” (TheraTechnologies Inc., priority 2002, dated 2006).

Series [1] relates to CD-1 normal female mice. Particulars: 1 μg dose ip, CD-1 mice.
Procedure: An OGTT was done as described above. Plasma insulin levels were determined using a commercial RIA kit (Linco Research).
Series [2] concerns db/db mice. In words: OGTT in diabetic mice (db/db). Type of series: in vivo. Particulars: 5 μG/mouse ip.
Procedure: An OGTT was conducted as described in Example 3. Peptides were injected intra-parentally (ip) at 5 μG/mouse doses.
Series [3] deals with RINm5F cells. As to the kind of experiment: cAMP production in RINm5F cells. Type of series: cell-based. Particulars: Mean ± SD; for IC50: 40 minutes incubation with peptide, 0.5 mM IBMX. As for the experimental part:
RINm5F cells (ATCC # CRL-2058) were grown to confluence and used 4 days following confluency. Aqueous stock solutions (1 mM) of GLP-1, 5, 8, 16, and 17, also containing 0.1% BSA, were made prior to the assay. Cells were pre-incubated with 100 μl RPMI containing 0.5 mM IBMX for 10 minutes at 37° C. Diluted (10^−5 to 10^−11 M) peptides (100 μl) were added to the wells and incubated for 40 minutes. At the end of the incubation period, the supernatant was collected and assayed for cAMP using a radioimmunoassay kit (Diagnostic Product Corporation). Maximal responses (pmol/mg protein) and IC50 (nM) values were evaluated from the dose-response curves and data presented in Table 3.
For orientation: cAMP levels reflect the balance of adenylyl cyclase and phosphodiesterase activity.

The conditions of series [4]: cited from earlier work.
Series [5] relates to Sprague-Dawley rats. In words: Intraperitoneal glucose tolerance test (IPGTT), plasma insulin levels in Sprague-Dawley rats. Type of series: in vivo. Particulars: 10 μg/rat iv. As for the experimental part: Sprague-Dawley rats (300–350 g) were fasted overnight, and injected with 1 g/kg glucose (2 ml) (over 15–20 seconds), and blood glucose levels were determined at different times during a period of 3 hours using a portable glucometer. The drugs (10 μg/rat) were dissolved in saline and injected into the femoral vein 5 minutes before the injection of glucose. Thus 0 time represents blood glucose and insulin levels after drug administration but before glucose injection. Plasma insulin levels were determined using a radioimmunoassay kit (Linco). […] The insulinogenic index was calculated as delta insulin (pM)/delta glucose (mM).

For “[H7] 3-methoxyphenyl acetic acid GLP-1 (7–37) COOH [Compound 7]”, the “effect on glucose disposal” value in series [1] is “no effect on glucose disposal”. Further, the “accelerating glucose disposal compared to GLP-1” value in series [2] is “performed better than GLP-1”.

For “[H7] (1S, 2S) 2-ethylcyclopropyl acetic acid GLP-1 (7–37) COOH [Compound 15]”, the “accelerating glucose disposal compared to GLP-1” value in series [2] was “performed better than GLP-1”.

One may read the IC50 as the concentration that inhibits the measured activity by half. A lower IC50 goes with higher potency. Regarding “[H7] 3-aminophenyl acetic acid GLP-1 (7–37) COOH [Compound 5]”, in series [3], the IC50 came out at 8.7 ± 9.8 nM and the “Maximal Response” value is on record as 20.0 ± 6.9 pmol/mg protein.

For GLP-1 (7–37) OH [reference compound], the “half-life of circulating GLP-1” value in series [4] (Kreymann et al., 1987) is “about 4 minutes”. For the same substance, in series [4] (active GLP-1 (Holst, 1994)), the metabolic clearance rate was 12 to 13 min and the plasma half-life was below 5 min. Moreover, the order of efficacy in series [5] is given as 15=5>7=GLP-1>8=vehicle. In series [3], the IC50 was found to be 6.4 ± 3.8 nM and the “Maximal Response” value came out at 17.6 ± 5.1 pmol/mg protein.

Consider “[H7] Salicylic acid GLP-1 (7–37) COOH [Compound 8]”, for which the order of efficacy in series [5] was 15=5>7=GLP-1>8=vehicle. In addition, the “accelerating glucose disposal compared to GLP-1” value in series [2] was “performed better than GLP-1”. For the same substance, in series [3], the IC50 was determined as 13.9 ± 15.6 nM and the “Maximal Response” value was determined as 25.1 ± 11.9 pmol/mg protein.

Take “[H7] Salicylic acid GLP-1 (7–37) CONH2 [Compound 17]”: in series [3], 13.2 ± 5.2 nM corresponded to half-maximal inhibition (IC50) and the “Maximal Response” value was 21.9 ± 2.1 pmol/mg protein.

With “[H7] 3-aminophenyl acetic acid GLP-1 (7–36) CONH2 [Compound 16]”, in series [3], the IC50 was determined as 10.2 ± 7.7 nM and the “Maximal Response” value was 13.8 ± 3.6 pmol/mg protein.
